In patent US20260191838A1, “COMBINATIONS COMPRISING A MENIN-MLL INHIBITOR AND A BCL-2 INHIBITOR” (JANSSEN PHARMACEUTICA NV, priority 2022, published 2026):

How the values were obtained:
[1] = tested on: MOLM14 cells; assay: Proliferation (spheroid) assay, MOLM14; assay type: cell-based; conditions: Homo sapiens, MOLM-14, 192 h, 8 days; read-out: spheroid assay_MOLM14 IC50
Protocol: (§1) The anti-proliferative effect of menin/MLL protein/protein interaction inhibitor test compounds was assessed in human leukemia cell lines. The cell line MOLM14 harbors a MLL translocation and expresses the MLL fusion protein MLL-AF9, respectively, as well as the wildtype protein from the second allele. OCI-AML3 cells that carry the NPM1c gene mutation were also tested. […] KO-52 was used as a control cell line containing two MLL (KMT2A) wildtype alleles in order to exclude compounds that display general cytotoxic effects.
(§2) MOLM14 cells were cultured in RPMI-1640 (Sigma Aldrich) supplemented with 10% heat-inactivated fetal bovine serum (HyClone), 2 mM L-glutamine (Sigma Aldrich) and 50 μg/ml gentamycin (Gibco). KO-52 and OCI-AML3 cell lines were propagated in alpha-MEM (Sigma Aldrich) supplemented with 20% heat-inactivated fetal bovine serum (HyClone), 2 mM L-glutamine (Sigma Aldrich) and 50 μg/ml gentamycin (Gibco).
In order to assess the anti-proliferative effects, 200 MOLM14 cells, […] or 300 KO-52 cells were seeded in 200 μl media per well in 96-well round bottom, ultra-low attachment plates (Costar, catalogue number 7007). Cell seeding numbers were chosen based on growth curves to ensure linear growth throughout the experiment. Test compounds were added at different concentrations and the DMSO content was normalized to 0.3%. Cells were incubated for 8 days at 37° C. and 5% CO2. Spheroid like growth was measured in real-time by live-cell imaging (IncuCyteZOOM, Essenbio, 4× objective) acquiring images at day 8. Confluence (%) as a measure of spheroid size was determined using an integrated analysis tool.
In order to determine the effect of the test compounds over time, the confluence in each well as a measure of spheroid size, was calculated. Confluence of the highest dose of a reference compound was used as baseline for the LC (Low control) and the confluence of DMSO treated cells was used as 0% cytotoxicity (High Control, HC).
Absolute IC50 values were calculated as percent change in confluence as follows: • LC=Low Control: cells treated with e.g. 1 μM of the cytotoxic agent staurosporin, or e.g. cells treated with a high concentration of an alternative reference compound • HC═High Control: Mean confluence (%) (DMSO treated cells) • % Effect=100−(100*(Sample-LC)/(HC-LC))
GraphPad Prism (version 7.00) was used to calculate the ICso. Dose-response equation was used for the plot of % Effect vs Log10 compound concentration with a variable slope and fixing the maximum to 100% and the minimum to 0%.

[2] = tested on: OCI-AML3 cells; assay: Proliferation (spheroid) assay, OCI-AML3; assay type: cell-based; conditions: Homo sapiens, OCI-AML-3, 192 h; 8 days; read-out: spheroid assay_OCI-AML3 IC50
Protocol: as §1, §2
(§3) In order to assess the anti-proliferative effects, 200 MOLM14 cells, 200° C. […] Spheroid like growth was measured in real-time by live-cell imaging (IncuCyteZOOM, Essenbio, 4× objective) acquiring images at day 8. Confluence (%) as a measure of spheroid size was determined using an integrated analysis tool.
(§4) In order to determine the effect of the test compounds over time, the confluence in each well as a measure of spheroid size, was calculated. […]

[3] = tested on: KO-52 cells; assay: Proliferation (spheroid) assay, KO-52 control cell line; assay type: cell-based; conditions: Homo sapiens, 192 h; 8 days; read-out: spheroid assay_KO-52 IC50
Protocol: as §1, §2, §3, §4

[4] = tested on: MEIS1 mRNA; assay: MEIS1 mRNA expression assay (Quantigene Singleplex) in MOLM14 cells; assay type: cell-based; conditions: Homo sapiens, MOLM-14, 48 hours
Protocol: 2b) MEIS1 mRNA Expression Assay
MEIS1 mRNA expression upon treatment of compound was examined by Quantigene Singleplex assay (Thermo Fisher Scientific). This technology allows for direct quantification of mRNA targets using probes hybridizing to defined target sequences of interest and the signal is detected using a Multimode plate reader Envision (PerkinElmer). The MOLM14 cell line was used for this experiment. Cells were plated in 96-well plates at 3,750 cells/well in the presence of increasing concentrations of compounds. After incubation of 48 hours with compounds, cells were lysed in lysis buffer and incubated for 45 minutes at 55° C. Cell lysates were mixed with human MEIS1 specific capture probe or human RPL28 (Ribosomal Protein L28) specific probe as a normalization control, as well as blocking probes. Cell lysates were then transferred to the custom assay hybridization plate (Thermo Fisher Scientific) and incubated for 18 to 22 hours at 55° C. Subsequently, plates were washed to remove unbound materials followed by sequential addition of preamplifiers, amplifiers, and label probe. Signals (=gene counts) were measured with a Multimode plate reader Envision. IC50s were calculated by dose-response modelling using appropriate software. For all non-housekeeper genes response equal counts corrected for background and relative expression. For each sample, each test gene signal (background subtracted) was divided by the normalization gene signal (RPL28: background subtracted). Fold changes were calculated by dividing the normalized values for the treated samples by the normalized values for the DMSO treated sample. Fold changes of each target gene were used for the calculation of IC50s.

[5] = Dynamic vapor sorption (DVS) moisture sorption analysis; assay type: physicochemical
Protocol: Dynamic Vapor Sorption (DVS)
The moisture sorption analysis (DVS) was performed using a ProUmid GmbH & Co.
KG Vsorp Enhanced dynamic vapor sorption apparatus. The moisture profile was evaluated by monitoring vapor adsorption/desorption over the range of 0 to 90% relative humidity at 25° C. The sample weight equilibrium criteria were set at 0.01% change in 45 min with minimum and maximum time of acclimation at 50 min and 120 min, respectively. The moisture profile consisted of 2 cycles of vapor adsorption/desorption.

[6] = common ambient RH of 40% to 75%

Question: Which IC50 [1] does the source give for `CC(=O)N1CCC(CN2CC[C@@H](Cc3cn(-c4ccc(F)cc4C(=O)N(C)C(C)C)c4cncc(C)c34)C2)CC1` [Compound 51a] here?
Answer: 13 nM

Question: And the IC50 [2]?
Answer: 70 nM

Question: What about the IC50 [3] of the same molecule?
Answer: 1200 nM

Question: And the IC50 [4]?
Answer: 11 nM

Question: What about the “total moisture mass at equilibrium” value [5, 6] of the same molecule?
Answer: 8.5-9.5%

Question: What about the “water content at equilibrium” value [5, 6] of the same molecule?
Answer: around 3 equivalents of water

Question: And the “hygroscopicity (DVS change in mass plot)” value ([5]; crystalline HCl salt Form, 0 to 90% relative humidity, 25° C.)?
Answer: hygroscopic

Question: What about the “solid-state form after DVS test (XRPD)” value ([5]; fraction obtained after the DVS test compared to starting material) of the same molecule?
Answer: No indication of a solid-state form change

Question: And the “moisture adsorbed and desorbed, on average” value ([5]; humidity range of 20-90% RH, 25° C.)?
Answer: up to 2.5 % by mass
